Results as given in patent publication US10758541B2, “Formulations of milciclib and therapeutic combinations of the same for use in the treatment of cancer” (Tiziana Life Sciences PLC, priority 2017, dated 2020).

Tested on: pAKT (Ser473), AKT, c-Myc, Cyclin D1, PTEN
Assay: Western blot analysis of tumor tissues
Assay type: in vivo, mice
Details: liver samples, vs vehicle treated group
Experimental: The tumor tissues from a thymic nude mice were weighed and homogenized with RIPA lysis buffer (Sigma-Aldrich, St. Louis, Mo.) and protease inhibitor cocktail (Sigma-Aldrich, St. Louis, Mo.). Tumor lysates were cleared by centrifugation and the protein concentration was determined using Bradford reagent (Sigma-Aldrich, St. Louis, Mo.). Equal amounts of protein (30 μg) were resolved on precast polyacrylamide gels (Thermo Fisher Scientific, Rockford, Ill.) and transferred to nitrocellulose membrane, 0.2 μm pore size (Thermo Fisher Scientific, Rockford, Ill.). The blots were blocked with 5% (w/v) nonfat dry milk for 2 h at room temperature and then probed with primary antibody overnight at 4° C. The primary antibodies were directed against the following proteins: human PTEN, human AKT and phospho-AKT (Ser473), human c-Myc, human CyclinD1 and human β-actin (Cell Signaling Technology, Beverly, Mass.). After three washes, incubation was followed by the reaction with horseradish peroxidase-conjugated secondary antibody for 1 h at room temperature. The immunoreactive bands were visualized using Image Studio 4.0-Western Analysis Ribbon (Li-Cor, Lincoln, Nebr.).

In the case of `CNC(=O)c1nn(C)c2c1C(C)(C)Cc1cnc(Nc3ccc(N4CCN(C)CC4)cc3)nc1-2` [MILCICLIB, N,1,4,4-tetramethyl-8-((4-(4-methylpiperazin-1-yl)phenyl)amino)-4,5-dihydro-1H-pyrazolo[4,3-h]quinazoline-3-carboxamide], the PTEN expression is reported as “upregulation” and the “pAKT, c-Myc and cyclin D1 expression” value is reported as “reduction”.
